Paper PMC9613470, “Diverse MarR bacterial regulators of auxin catabolism in the plant microbiome” (Nature Microbiology, 2022)
Several values for one entry are separate records, joined by “and”; a condition that tells them apart may be missing. Equal entries are not always repeated.

Tests used:
[1] = molecular target: Variovorax paradoxus CL14 MarR_73 (Variovorax paradoxus, UniProt C5CSP2); assay: biochemical; assay type: binding; conditions: ITC, 25 °C, 20 mM HEPES pH 7.4, 50 mM NaCl, 0.5% DMSO, mean of two measurements ± standard error
Experimental: (§1) The coding sequence for each gene can be found in Supplementary Table 10. MarR expression plasmids were synthesized as codon-optimized genes for E. coli expression by BioBasic in the pLIC-His N-term vector (pMCSG7) and transformed into E. coli BL21 (DE3) Gold cells for expression. […] At an OD600 of 0.8, protein expression was induced by the addition of 0.1 mM IPTG and incubation continued overnight. Cells were collected by centrifugation at 4,500 × g for 20 min at 4 °C in a Sorvall (model RC-3B) swinging bucket centrifuge. Cell pellets were resuspended in buffer A (20 mM potassium phosphate, pH 7.4, 50 mM imidazole, 500 mM NaCl), DNase, lysozyme and a Roche Complete EDTA-free protease inhibitor tablet. Resuspended cells were sonicated and clarified via centrifugation at 17,000 × g for 60 min in a Sorvall (model RC-5B) swinging bucket centrifuge. The lysate was applied to a nickel-nitrilotriacetic acid HP column (GE Healthcare) on an Aktaxpress Fast Performance Liquid Chromatography (FPLC) system (Amersham Bioscience) and washed with buffer A. Protein was eluted with buffer B (20 mM potassium phosphate, pH 7.4, 500 mM imidazole, 500 mM NaCl). Fractions containing the protein of interest were combined and passed over a HiLoadTM 16/60 SuperdexTM 200 gel filtration column. Proteins were eluted in S200 buffer (20 mM HEPES, pH 7.4, 300 mM NaCl). Fractions were combined and concentrated for long-term storage at −80 °C.
All ITC measurements were performed at 25 °C using an Auto-ITC200 microcalorimeter (MicroCal/GE Healthcare). The buffer employed was 20 mM HEPES, pH 7.4, 50 mM NaCl and 0.5% dimethly sulfoxide (DMSO) for protein/ligand binding and 20 mM HEPES, pH 7.4 and 300 mM NaCl for DNA/protein binding experiments. For ligand binding experiments, the calorimetry cell (volume […]) was loaded with MarR wild-type, mutant or homologue protein at a concentration of 50 μM. The syringe was loaded with a ligand concentration of 0.5 or 2 mM. […] A typical injection protocol included a single 0.2 μl first injection followed by 20 1.5 μl injections of the syringe sample into the calorimetry cell. The spacing between injections was kept at 180 s and the reference power at 8 μcal s^−1. […] Two independent ITC measurements were performed for each condition.

[2] = molecular target: Pseudomonas putida 1290 MarR_iacR (Pseudomonas putida, UniProt B0FXI7); assay: ITC IAA binding to MarR_iacR; conditions: 25 °C, IacR
Experimental: as §1, with “Fractions were combined and concentrated for long-term storage at −80 °C.” left out

[3] = molecular target: T1, Enterobacter soli LF7 MarR_Es (Enterobacter soli, UniProt A0AAW8H3I9, A146S); assay: ITC IAA binding to MarR_Es; conditions: 25 °C, IacR
T1 sequence (A0AAW8H3I9 1-157 A146S): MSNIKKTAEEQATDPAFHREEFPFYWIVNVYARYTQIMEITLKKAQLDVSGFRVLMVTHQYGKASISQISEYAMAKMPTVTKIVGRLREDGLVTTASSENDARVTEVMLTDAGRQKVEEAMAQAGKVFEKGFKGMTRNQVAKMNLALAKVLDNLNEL
Experimental: All ITC measurements were performed at 25 °C using an Auto-ITC200 microcalorimeter (MicroCal/GE Healthcare). The buffer employed was 20 mM HEPES, pH 7.4, 50 mM NaCl and 0.5% dimethly sulfoxide (DMSO) for protein/ligand binding and 20 mM HEPES, pH 7.4 and 300 mM NaCl for DNA/protein binding experiments. For ligand binding experiments, the calorimetry cell (volume 200 ml) was loaded with MarR wild-type, mutant or homologue protein at a concentration of 50 μM. The syringe was loaded with a ligand concentration of 0.5 or 2 mM. […] A typical injection protocol included a single 0.2 μl first injection followed by 20 1.5 μl injections of the syringe sample into the calorimetry cell. The spacing between injections was kept at 180 s and the reference power at 8 μcal s^−1. The data were analysed using Origin for ITC version 7.0 software supplied by the manufacturer and fit well to a one-site binding model. Two independent ITC measurements were performed for each condition.

[4] = molecular target: MarR_73 S28A H32A R46A; assay: ITC IAA binding to MarR_73 S28A H32A R46A mutant; set-up: species or system Variovorax paradoxus CL14; conditions: 25 °C
Experimental: as §1, with “Fractions were combined and concentrated for long-term storage at −80 °C.” left out

Sequence of Variovorax paradoxus CL14 MarR_73 (C5CSP2 entry or part of it): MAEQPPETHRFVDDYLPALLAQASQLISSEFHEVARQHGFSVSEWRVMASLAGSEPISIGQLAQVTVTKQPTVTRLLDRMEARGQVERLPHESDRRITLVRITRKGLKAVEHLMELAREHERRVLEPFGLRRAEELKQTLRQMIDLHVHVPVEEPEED
Sequence of Pseudomonas putida 1290 MarR_iacR (B0FXI7 whole entry): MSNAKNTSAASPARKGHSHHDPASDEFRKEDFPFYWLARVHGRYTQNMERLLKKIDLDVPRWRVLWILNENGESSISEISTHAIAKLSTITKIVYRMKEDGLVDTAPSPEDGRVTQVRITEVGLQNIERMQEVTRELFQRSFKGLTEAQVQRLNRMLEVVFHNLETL

**Q.** With O=C(O)Cc1c[nH]c2ccccc12 [IAA, indole-3-acetic acid] as the molecule, how does the “N (ligand binding stoichiometry to the MarR monomer)” value [1] read?
**A.** 0.732 ± 0.036

**Q.** And the “N (ligand binding stoichiometry to the MarR monomer)” value ([1]; listed as Indole-3-Acetic Acid (IAA))?
**A.** 0.73 ± 0.04

**Q.** And the Kd ([1]; KD)?
**A.** 410 nM and 408 nM

**Q.** What about the N1 [2] of the same molecule?
**A.** 0.590± 0.032

**Q.** What about the Kd ([2]; read-out: KD1) of the same molecule?
**A.** 4450 ± 196 nM

**Q.** What about the N1 [3] of the same molecule?
**A.** 0.967 ± 0.006

**Q.** What about the KD [4] of the same molecule?
**A.** No Binding
